The results in this text go back to patent publication US12590106B2, “Spiromacrocyclic orexin 2 receptor agonists” (H. Lundbeck A/S, priority 2023, dated 2026).

The term EC50 denotes the midpoint of the concentration-response curve. As a reminder, the Emax is the size of the effect at its maximum, as opposed to the concentration needed.

The target in this experiment is T1, human Ox2R (Homo sapiens, UniProt O43614).
T1 construct: The gene encoding hOx2R was subcloned into the expression plasmid pcDNA5/FRT/TO; expressed in transfected cells; host or cells: CHO Flp-In cells (pcDNA5/FRT/TO with pOG44 Flp recombinase vector, hygromycin B selection)
T1 sequence (O43614 1-444): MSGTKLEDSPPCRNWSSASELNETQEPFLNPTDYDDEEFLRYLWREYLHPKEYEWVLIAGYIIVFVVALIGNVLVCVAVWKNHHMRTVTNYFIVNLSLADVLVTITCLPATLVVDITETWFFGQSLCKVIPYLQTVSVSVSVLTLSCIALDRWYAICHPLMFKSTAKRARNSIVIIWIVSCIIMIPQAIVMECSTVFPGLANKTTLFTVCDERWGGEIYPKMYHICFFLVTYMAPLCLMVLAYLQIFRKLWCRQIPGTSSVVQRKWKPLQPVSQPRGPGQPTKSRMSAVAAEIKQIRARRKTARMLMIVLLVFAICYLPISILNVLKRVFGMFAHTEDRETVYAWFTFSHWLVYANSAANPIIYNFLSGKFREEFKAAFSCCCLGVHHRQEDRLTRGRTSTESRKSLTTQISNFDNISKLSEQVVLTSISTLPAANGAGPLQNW
The experiment is described as follows: Measurement of OX2R agonist activity (cell-based calcium release assay). Particulars: hOx2R-CHO Flp-In cells, n≥2 tests; for EC50: intracellular calcium, read-out: EC50; for Emax: read-out: Emax (%). Summed up:
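CHO Flp-In cells stably expressing human Ox2R, dye-loaded 1 h at 37 °C in HBSS/20 mM HEPES pH 7.4 with 2.5 mM probenecid and 10 mM CaCl2, then stimulated with compound.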
Background: Calcium assays in cells follow changes in intracellular calcium, usually with a dye or a luminescent sensor.

Where [1] appears, read: normalized to assay buffer (0%) and 10 μM Danavorexton (100%).

As to `Cc1nc2c(s1)-c1cc(ccc1F)C[C@@]1(CC[C@H](NS(C)(=O)=O)C1)c1nc(co1)CO2` [Example 102, N-[(1′S,13R)-18-fluoro-4-methyl-spiro[7,11-dioxa-3-thia-5,20-diazatetracyclo[13.3.1.19,12.02,6]icosa-1(18),2(6),4,9,12(20),15(19),16-heptaene-13,3′-cyclopentane]-1′-yl]methanesulfonamide], the EC50 stood at 2.1 nM. Also, the Emax under setting [1] is 110%.

For the molecule `CS(=O)(=O)N[C@H]1CC[C@@]2(Cc3ccc(F)c(c3)-c3ccc(F)c(F)c3OCc3ccnc2n3)C1` [Example 87, N-[(1′S,15R)-5,6,20-trifluorospiro[8-oxa-13,22-diazatetracyclo[15.3.1.110,14.02,7]docosa-1(21),2,4,6,10,12,14(22),17,19-nonaene-15,3′-cyclopentane]-1′-yl]methanesulfonamide], the EC50 amounted to 2 nM. In addition, the Emax under setting [1] amounted to 100%.

As to `Cc1oc2nc1COc1ccccc1-c1cc(ccc1F)C[C@@]21CC[C@H](NS(C)(=O)=O)C1` [Example 26, N-[(1′S,14R)-19-fluoro-11-methyl-spiro[8,12-dioxa-21-azatetracyclo[14.3.1.110,13.02,7]henicosa-1(19),2,4,6,10,13(21),16(20),17-octaene-14,3′-cyclopentane]-1′-yl]methanesulfonamide], the 50% effective concentration (EC50) worked out at 0.19 nM. Besides, the maximum response (Emax) under setting [1] came to 95%.

For the molecule `CNS(=O)(=O)N[C@H]1CC[C@@]2(Cc3ccc(F)c(c3)-c3ccccc3OCc3coc2n3)C1` [Example 12, (1′S,14R)-19-fluoro-N-(methylsulfamoyl)spiro[8,12-dioxa-21-azatetracyclo[14.3.1.110,13.02,7]henicosa-1(19),2,4,6,10,13(21),16(20),17-octaene-14,3′-cyclopentane]-1′-amine], the EC50 came to 0.19 nM. In addition, the maximum response (Emax) under setting [1] was found to be 100%.

Turning to “N-[(3′R,14S)-6,17,19-trifluorospiro[8,12-dioxa-21-azatetracyclo[14.3.1.110,13.02,7]henicosa-1(19),2,4,6,10,13(21),16(20),17-octaene-1′,5′-tetrahydrofuran′-3′-yl]methanesulfonamide or N-[(3′S,14R)-6,17,19-trifluorospiro[8,12-dioxa-21-azatetracyclo[14.3.1.110,13.02,7]henicosa-1(19),2,4,6,10,13(21),16(20),17-octaene-1′,5′-tetrahydrofuran′-3′-yl]methanesulfonamide [Example 110]”, the concentration for a half-maximal effect (EC50) was 0.32 nM. Also, under setting [1], the “Emax (%)” value was found to be 96%.

Regarding `CS(=O)(=O)N[C@H]1CC[C@@]2(Cc3cccc(c3)-c3cccnc3OCc3coc2n3)C1` [Example 9, N-[(1′S,14R)-spiro[8,12-dioxa-6,21-diazatetracyclo[14.3.1.110,13.02,7]henicosa-1(20),2,4,6,10,13(21),16,18-octaene-14,3′-cyclopentane]-1′-yl]methanesulfonamide], the EC50 was 10 nM. Under setting [1], the Emax came to 98%.

On to `CS(=O)(=O)N[C@H]1CC[C@]2(CC1)Cc1ccc(F)c(c1)-c1cccc(F)c1OCc1ccnc2n1` [Example 108, trans-N-(6,20-difluorospiro[8-oxa-13,22-diazatetracyclo[15.3.1.110,14.02,7]docosa-1(21),2,4,6,10,12,14(22),17,19-nonaene-15,4′-cyclohexane]-1′-yl)methanesulfonamide], for which the 50% effective concentration (EC50) came to 0.45 nM. In addition, the Emax under setting [1] turned out to be 98%.

For `CS(=O)(=O)N[C@H]1CC[C@@]2(Cc3ccc(F)c(c3)-c3cccc(Cl)c3OCc3coc2n3)C1` [Example 20, N-[(1′S,14R)-6-chloro-19-fluoro-spiro[8,12-dioxa-21-azatetracyclo[14.3.1.110,13.02,7]henicosa-1(19),2,4,6,10,13(21),16(20),17-octaene-14,3′-cyclopentane]-1′-yl]methanesulfonamide], the concentration giving a half-maximal response (EC50) was 0.33 nM. Moreover, the Emax under setting [1] turned out to be 97%.

With `CS(=O)(=O)N[C@H]1CC[C@@]2(Cc3cccc(c3)-c3cccnc3NCc3coc2n3)C1` [Example 74, N-[(1′S,14R)-spiro[12-oxa-6,8,21-triazatetracyclo[14.3.1.110,13.02,7]henicosa-1(20),2,4,6,10,13(21),16,18-octaene-14,3′-cyclopentane]-1′-yl]methanesulfonamide], the half-maximal effective concentration (EC50) is 92 nM. For the same molecule, under setting [1], the Emax amounted to 100%.

Turning to `O=S(=O)(N[C@H]1CC[C@@]2(Cc3ccc(F)c(c3)-c3cccc(F)c3OCc3coc2n3)C1)C1CC1` [Example 33, N-[(1′S,14R)-6,19-difluorospiro[8,12-dioxa-21-azatetracyclo[14.3.1.110,13.02,7]henicosa-1(19),2,4,6,10,13(21),16(20),17-octaene-14,3′-cyclopentane]-1′-yl]cyclopropanesulfonamide], the EC50 was 0.1 nM. In addition, the Emax under setting [1] turned out to be 97%.

For the molecule `Cc1oc2nc1COc1ccccc1-c1cccc(c1)C[C@@]21CC[C@H](NS(C)(=O)=O)C1` [Example 68, N-[(1′S,14R)-11-methylspiro[8,12-dioxa-21-azatetracyclo[14.3.1.110,13.02,7]henicosa-1(19),2,4,6,10,13(21),16(20),17-octaene-14,3′-cyclopentane]-1′-yl]methanesulfonamide], the EC50 came to 1.5 nM. Under setting [1], the Emax turned out to be 98%.

In the case of `CS(=O)(=O)N[C@H]1CC[C@@]2(Cc3ccc(C(F)(F)F)c(c3)-c3ccccc3OCc3coc2n3)C1` [Example 24, N-[(1′S,14R)-19-(trifluoromethyl)spiro[8,12-dioxa-21-azatetracyclo[14.3.1.110,13.02,7]henicosa-1(19),2,4,6,10,13(21),16(20),17-octaene-14,3′-cyclopentane]-1′-yl]methanesulfonamide], the half-maximal effective concentration (EC50) turned out to be 5.2 nM. In addition, under setting [1], the Emax was 98%.

With `CS(=O)(=O)N[C@H]1CC[C@@]2(Cc3cc(c(F)cc3F)-c3ccccc3OCc3coc2n3)C1` [Example 18, N-[(1′S,14R)-17,19-difluorospiro[8,12-dioxa-21-azatetracyclo[14.3.1.110,13.02,7]henicosa-1(19),2,4,6,10,13(21),16(20),17-octaene-14,3′-cyclopentane]-1′-yl]methanesulfonamide], the EC50 was found to be 0.19 nM. Moreover, the maximal response (Emax) under setting [1] worked out at 95%.

Regarding `CS(=O)(=O)N[C@H]1CC[C@@]2(Cc3cccc(c3)-c3cccc(c3)OCc3coc2n3)C1` [Example 48, N-[(1′S,13R)-spiro[7,11-dioxa-20-azatetracyclo[13.3.1.12,6.19,12]henicosa-1(19),2,4,6(21),9,12(20),15,17-octaene-13,3′-cyclopentane]-1′-yl]methanesulfonamide], the concentration giving a half-maximal response (EC50) worked out at 15 nM. For the same molecule, under setting [1], the Emax came out at 95%.

Regarding `CS(=O)(=O)N[C@H]1CC[C@@]2(Cc3cccc(c3)-c3cccc(n3)OCc3coc2n3)C1` [Example 47, N-[(1′S,13R)-spiro[7,11-dioxa-20,21-diazatetracyclo[13.3.1.12,6.19,12]henicosa-1(19),2,4,6(21),9,12(20),15,17-octaene-13,3′-cyclopentane]-1′-yl]methanesulfonamide], the half-maximal effective concentration (EC50) came out at 8.6 nM. Besides, the maximal effect (Emax) under setting [1] is 96%.
